Laboratory results taken from patent US9809858B2, “O-glycan pathway ovarian cancer signature” (H. LEE MOFFITT CANCER CENTER AND RESEARCH INSTITUTE, INC., priority 2012, dated 2017).
pIC50: −log10 of the molar value.

What was measured:
OV2008 OVCA cell line = assay: CellTiter-Blue cell viability assay, OV2008; format: cell-based; settings: Homo sapiens; OV2008 cells, 72 hours, growth/viability
Description: (§1) OVCA cell lines were obtained from the American Type Culture Collection (Manassas, Va.; CAOV3, OV90, OVCAR3, SKOV3), from the European Collection of Cell Cultures (Salisbury, UK; A2780CP, A2780S), from Kyoto University (Kyoto, Japan; CHI, CHIcisR, M41, M41CSR, Tyknu, and TyknuCisR), or as kind gifts (A2008, C13, CAOV2, HeyA8, IGR-OV1, IMCC3, IMCC5, MCAS, OV2008, OVCA420, OVCA429, OVCA432, OVCA433, FUOV1, PEO1, PEO4, SK-OV-6, T8, TOV-112D, TOV-21-G, Dov13, BG1, Ovary1847, OVCAR10, OVCAR8, OVCAR5, OVCAR4, OVCAR2, SK-OV-4). Cell lines were maintained in RPMI 1640 medium (Invitrogen, Carlsbad, Calif.) supplemented with 10% fetal bovine serum (Fisher Scientific, Pittsburgh, Pa.), 1% sodium pyruvate, 1% penicillin/streptomycin (Cellgro, Manassas, Va.), and 1% nonessential amino acids (HyClone, Hudson, N.H.). Mycoplasma testing was performed every 6 months, in accordance with the manufacturer's protocol (Lonza, Rockland, Me.).
(§2) Drug activity was evaluated using a high-throughput CellTiter-Blue® cell viability assay. […] Fluorescence was read at 579-nm excitation/584-nm emission using a Synergy™ 4 microplate reader (Bio-Tek Instruments, Inc., Winooski, Vt.). IC50 values were determined using a sigmoidal equilibrium model fit (XLfit 5.2, ID Business Solutions Ltd.). […]

IMCC3 OVCA cell line = assay: CellTiter-Blue cell viability assay, IMCC3; format: cell-based; settings: Homo sapiens; IMCC3 cells, 72 hours, growth/viability
Description: as §1, §2

Ovary1847 OVCA cell line = assay: CellTiter-Blue cell viability assay, Ovary1847; format: cell-based; settings: Homo sapiens; Ovary1847 cells, 72 hours, growth/viability
Description: as §1, §2

SK-OV-4 OVCA cell line = assay: CellTiter-Blue cell viability assay, SK-OV-4; format: cell-based; settings: Homo sapiens; SK-OV-4 cells, 72 hours, growth/viability
Description: as §1, §2

OVCA432 OVCA cell line = assay: CellTiter-Blue cell viability assay, OVCA432; format: cell-based; settings: Homo sapiens; OVCA432 cells, 72 hours, growth/viability
Description: as §1, §2

CHIcisR OVCA cell line = assay: CellTiter-Blue cell viability assay, CHIcisR; format: cell-based; settings: Homo sapiens; CHIcisR cells, 72 hours, growth/viability
Description: as §1, §2

A2780S OVCA cell line = assay: CellTiter-Blue cell viability assay, A2780S; format: cell-based; settings: Homo sapiens; A2780S cells, 72 hours, growth/viability
Description: as §1, §2

T8 OVCA cell line = assay: CellTiter-Blue cell viability assay, T8; format: cell-based; settings: Homo sapiens; T8 cells, 72 hours, growth/viability
Description: as §1, §2

TOV-21G OVCA cell line = assay: CellTiter-Blue cell viability assay, TOV-21G; format: cell-based; settings: Homo sapiens, TOV21G; TOV-21G cells, 72 hours, growth/viability
Description: as §1, §2

IGR-OV1 OVCA cell line = assay: CellTiter-Blue cell viability assay, IGR-OV1; format: cell-based; settings: Homo sapiens, IGROV-1; IGR-OV1 cells, 72 hours, growth/viability
Description: as §1, §2

TOV-112D OVCA cell line = assay: CellTiter-Blue cell viability assay, TOV-112D; format: cell-based; settings: Homo sapiens, TOV112D; TOV-112D cells, 72 hours, growth/viability
Description: as §1, §2

SK-OV-6 OVCA cell line = assay: CellTiter-Blue cell viability assay, SK-OV-6; format: cell-based; settings: Homo sapiens; SK-OV-6 cells, 72 hours, growth/viability
Description: as §1, §2

Tyknu OVCA cell line = assay: CellTiter-Blue cell viability assay, Tyknu; format: cell-based; settings: Homo sapiens; Tyknu cells, 72 hours, growth/viability
Description: as §1, §2

M41CSR OVCA cell line = assay: CellTiter-Blue cell viability assay, M41CSR; format: cell-based; settings: Homo sapiens; M41CSR cells, 72 hours, growth/viability
Description: as §1, §2

SK-OV-3 OVCA cell line = assay: CellTiter-Blue cell viability assay, SK-OV-3; format: cell-based; settings: Homo sapiens; SK-OV-3 cells, 72 hours, growth/viability
Description: as §1, §2

OVCAR5 OVCA cell line = assay: CellTiter-Blue cell viability assay, OVCAR5; format: cell-based; settings: Homo sapiens, OVCAR-5; OVCAR5 cells, 72 hours, growth/viability
Description: as §1, §2

OV90 OVCA cell line = assay: CellTiter-Blue cell viability assay, OV90; format: cell-based; settings: Homo sapiens, OV-90; OV90 cells, 72 hours, growth/viability
Description: as §1, §2

FUOV1 OVCA cell line = assay: CellTiter-Blue cell viability assay, FUOV1; format: cell-based; settings: Homo sapiens; FUOV1 cells, 72 hours, growth/viability
Description: as §1, §2

TyknuCisR OVCA cell line = assay: CellTiter-Blue cell viability assay, TyknuCisR; format: cell-based; settings: Homo sapiens; TyknuCisR cells, 72 hours, growth/viability
Description: as §1, §2

MCAS OVCA cell line = assay: CellTiter-Blue cell viability assay, MCAS; format: cell-based; settings: Homo sapiens; MCAS cells, 72 hours, growth/viability
Description: as §1, §2

OVCAR8 OVCA cell line = assay: CellTiter-Blue cell viability assay, OVCAR8; format: cell-based; settings: Homo sapiens, OVCAR-8; OVCAR8 cells, 72 hours, growth/viability
Description: as §1, §2

M41 OVCA cell line = assay: CellTiter-Blue cell viability assay, M41; format: cell-based; settings: Homo sapiens; M41 cells, 72 hours, growth/viability
Description: as §1, §2

BG1 OVCA cell line = assay: CellTiter-Blue cell viability assay, BG1; format: cell-based; settings: Homo sapiens, BG-1; BG1 cells, 72 hours, growth/viability
Description: as §1, §2

PEO4 OVCA cell line = assay: CellTiter-Blue cell viability assay, PEO4; format: cell-based; settings: Homo sapiens; PEO4 cells, 72 hours, growth/viability
Description: as §1, §2

OVCA433 OVCA cell line = assay: CellTiter-Blue cell viability assay, OVCA433; format: cell-based; settings: Homo sapiens; OVCA433 cells, 72 hours, growth/viability
Description: as §1, §2

[1] = test system: patients with recurrent OVCA; settings: 800-1250 mg/m^2/week, Phase II and III studies; cited from earlier work
A2008 OVCA cell line = assay: CellTiter-Blue cell viability assay, A2008; format: cell-based; settings: Homo sapiens; A2008 cells, 72 hours, growth/viability
Description: as §1, §2

A2780CP OVCA cell line = assay: CellTiter-Blue cell viability assay, A2780CP; format: cell-based; settings: Homo sapiens, A2780C/P; A2780CP cells, 72 hours, growth/viability
Description: as §1, §2

HeyA8 OVCA cell line = assay: CellTiter-Blue cell viability assay, HeyA8; format: cell-based; settings: Homo sapiens, HEY A8; HeyA8 cells, 72 hours, growth/viability
Description: as §1, §2

Dov13 OVCA cell line = assay: CellTiter-Blue cell viability assay, Dov13; format: cell-based; settings: Homo sapiens; Dov13 cells, 72 hours, growth/viability
Description: as §1, §2

CAOV2 OVCA cell line = assay: CellTiter-Blue cell viability assay, CAOV2; format: cell-based; settings: Homo sapiens; CAOV2 cells, 72 hours, growth/viability
Description: as §1, §2

CAOV3 OVCA cell line = assay: CellTiter-Blue cell viability assay, CAOV3; format: cell-based; settings: Homo sapiens, Caov-3; CAOV3 cells, 72 hours, growth/viability
Description: as §1, §2

OVCA429 OVCA cell line = assay: CellTiter-Blue cell viability assay, OVCA429; format: cell-based; settings: Homo sapiens; OVCA429 cells, 72 hours, growth/viability
Description: as §1, §2

OVCAR3 OVCA cell line = assay: CellTiter-Blue cell viability assay, OVCAR3; format: cell-based; settings: Homo sapiens, OVCAR-3; OVCAR3 cells, 72 hours, growth/viability
Description: as §1, §2

IMCC5 OVCA cell line = assay: CellTiter-Blue cell viability assay, IMCC5; format: cell-based; settings: Homo sapiens; IMCC5 cells, 72 hours, growth/viability
Description: as §1, §2

CHI OVCA cell line = assay: CellTiter-Blue cell viability assay, CHI; format: cell-based; settings: Homo sapiens; CHI cells, 72 hours, growth/viability
Description: as §1, §2

OVCAR2 OVCA cell line = assay: CellTiter-Blue cell viability assay, OVCAR2; format: cell-based; settings: Homo sapiens; OVCAR2 cells, 72 hours, growth/viability
Description: as §1, §2

OVCA420 OVCA cell line = assay: CellTiter-Blue cell viability assay, OVCA420; format: cell-based; settings: Homo sapiens, OVCA 420; OVCA420 cells, 72 hours, growth/viability
Description: as §1, §2

OVCAR10 OVCA cell line = assay: CellTiter-Blue cell viability assay, OVCAR10; format: cell-based; settings: Homo sapiens; OVCAR10 cells, 72 hours, growth/viability
Description: as §1, §2

PEO1 OVCA cell line = assay: CellTiter-Blue cell viability assay, PEO1; format: cell-based; settings: Homo sapiens; PEO1 cells, 72 hours, growth/viability
Description: as §1, §2

OVCAR4 OVCA cell line = assay: CellTiter-Blue cell viability assay, OVCAR4; format: cell-based; settings: Homo sapiens, OVCAR-4; OVCAR4 cells, 72 hours, growth/viability
Description: as §1, §2

C13 OVCA cell line = assay: CellTiter-Blue cell viability assay, C13; format: cell-based; settings: Homo sapiens; C13 cells, 72 hours, growth/viability
Description: as §1, §2

SMILES: Nc1ccn([C@@H]2O[C@H](CO)[C@@H](O)C2(F)F)c(=O)n1 [Gemcitabine, 2′,2′-difluorodeoxycytidine]
- pIC50 (OV2008 OVCA cell line): 6.42
- pIC50 (IMCC3 OVCA cell line): 6.03
- pIC50 (Ovary1847 OVCA cell line): 6.06
- pIC50 (SK-OV-4 OVCA cell line): 8.48
- pIC50 (OVCA432 OVCA cell line): 4.83
- pIC50 (CHIcisR OVCA cell line): 7.63
- pIC50 (A2780S OVCA cell line): 7.29
- pIC50 (T8 OVCA cell line): 6.59
- pIC50 (TOV-21G OVCA cell line): 6.12
- pIC50 (IGR-OV1 OVCA cell line): 6.27
- pIC50 (TOV-112D OVCA cell line): 4.35
- pIC50 (SK-OV-6 OVCA cell line): 5.46
- pIC50 (Tyknu OVCA cell line): 8.34
- pIC50 (M41CSR OVCA cell line): 7.43
- pIC50 (SK-OV-3 OVCA cell line): 4.79
- pIC50 (OVCAR5 OVCA cell line): 6.56
- pIC50 (OV90 OVCA cell line): 7.72
- pIC50 (FUOV1 OVCA cell line): 4.23
- pIC50 (TyknuCisR OVCA cell line): 8.07
- pIC50 (MCAS OVCA cell line): 4.25
- pIC50 (OVCAR8 OVCA cell line): 6.56
- pIC50 (M41 OVCA cell line): 7.40
- pIC50 (BG1 OVCA cell line): 4.52
- pIC50 (PEO4 OVCA cell line): 6.27
- pIC50 (OVCA433 OVCA cell line): 8.00
- response rates [1]: up to 19%
- pIC50 (A2008 OVCA cell line): 6.79
- pIC50 (A2780CP OVCA cell line): 6.44
- pIC50 (HeyA8 OVCA cell line): 5.82
- pIC50 (Dov13 OVCA cell line): 8.22
- pIC50 (CAOV2 OVCA cell line): 5.41
- pIC50 (CAOV3 OVCA cell line): 8.66
- pIC50 (OVCA429 OVCA cell line): 7.65
- pIC50 (OVCAR3 OVCA cell line): 5.21
- pIC50 (IMCC5 OVCA cell line): 6.98
- pIC50 (CHI OVCA cell line): 6.57
- pIC50 (OVCAR2 OVCA cell line): 7.66
- pIC50 (OVCA420 OVCA cell line): 4.90
- pIC50 (OVCAR10 OVCA cell line): 6.17
- pIC50 (PEO1 OVCA cell line): 6.87
- pIC50 (OVCAR4 OVCA cell line): 6.18
- pIC50 (C13 OVCA cell line): 6.38
